Read-outs that look alike come from different tables or passages of the source.
What was measured:
[1] = target: T1, HCV NS3/4A protease complex (UniProt P27958, C1454S/C1711G, species not given); assay: Recombinant HCV NS3/4A protease complex FRET peptide assay (strain not stated); assay type: biochemical
T1 construct: fused on or other part: Three-lysine solubilising tail at the C-terminus of NS4A

[2] = tested on: HCV replicon in Huh7 cells; assay: HCV replicon cell-based assay; design: species or system HCV strain 1B; details: HCV replicon, 4 days, read-out: EC50 range
Outline: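 Huh7 cells carrying a genotype 1b subgenomic replicon (NS3-NS5B, neo) treated 4 days at 37° C with compound (0.5% DMSO final). NS3 protease activity read in lysates with 10 μM FRET peptide (340/490 nm, kinetic), giving EC50. Confirmed by Taqman qRT-PCR of HCV RNA and a Renilla luciferase replicon.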

[3] = HCV NS3/4A protease enzyme assay, read-out: IC50 range

SMILES	IC50 [1, 3]	EC50 ([2]; Hepatitis C virus, Huh-7, 96 h)	IC50 ([1]; read-out: IC50 range, HCV NS3/4A protease enzyme assay)	EC50 [2]
C=CC1C[C@]1(NC(=O)[C@@H]1C[C@@H](OC(=O)Nc2ccccc2N2CCCCC2)CN1C(=O)[C@@H](NC(=O)OC(C)(C)C)C(C)(C)C)C(=O)NS(=O)(=O)C1CC1 (stereo partly drawn) [Compound 90, BocNH-P3(t-BuGly)-P2(Hyp(O—CO(NH—(2-Piperidin-1-yl-phenyl))))-P1(1R,2S VinylAcca)—CONHSO2Cyclopropane]	< 100 nM	< 100 nM	–	–
C=CC1C[C@]1(NC(=O)[C@@H]1C[C@@H](OC(=O)Nc2cccc(CC)c2)CN1C(=O)[C@@H](NC(=O)OC(C)(C)C)C(C)(C)C)C(=O)NS(=O)(=O)C1CC1 (stereo partly drawn) [Compound 25, BocNH-P3(t-BuGly)-P2(Hyp(O—CO(NH—(3-ethyl-phenyl))))-P1(1R,2S VinylAcca)—CONHSO2Cyclopropane]	< 100 nM	1000 to 10000 nM	–	–
C=CC1C[C@]1(NC(=O)[C@@H]1C[C@@H](OC(=O)N(C(C)C)C(C)C)CN1C(=O)[C@@H](NC(=O)OC(C)(C)C)C(C)(C)C)C(=O)NS(=O)(=O)C1CC1 (stereo partly drawn) [Compound 45, BocNH-P3(t-BuGly)-P2(Hyp(O—CO(N,N-diisopropyl)))-P1(1R,2S VinylAcca)—CONHSO2Cyclopropane]	–	100 to 1000 nM	< 100 nM	–
C=CC1C[C@]1(NC(=O)[C@@H]1C[C@@H](OC(=O)Nc2cc(C)ccc2Cl)CN1C(=O)[C@@H](NC(=O)OC(C)(C)C)C(C)(C)C)C(=O)NS(=O)(=O)C1CC1 (stereo partly drawn) [Compound 38, BocNH-P3(t-BuGly)-P2(Hyp(O—CO(NH—(2-chloro-5-methyl-phenyl))))-P1(1R,2S VinylAcca)—CONHSO2Cyclopropane]	< 100 nM	100 to 1000 nM	–	–
C=CC1C[C@]1(NC(=O)[C@@H]1C[C@@H](OC(=O)Nc2cccc(SC)c2)CN1C(=O)[C@@H](NC(=O)OC(C)(C)C)C(C)(C)C)C(=O)NS(=O)(=O)C1CC1 (stereo partly drawn) [Compound 37, BocNH-P3(t-BuGly)-P2(Hyp(O—CO(NH—(3-methylsulfanyl-phenyl))))-P1(1R,2S VinylAcca)—CONHSO2Cyclopropane]	< 100 nM	1000 to 10000 nM	–	–
C=CC1C[C@]1(NC(=O)[C@@H]1C[C@@H](OC(=O)N(CCCC)CCCC)CN1C(=O)[C@@H](NC(=O)OC(C)(C)C)C(C)(C)C)C(=O)NS(=O)(=O)C1CC1 (stereo partly drawn) [Compound 46, BocNH-P3(t-BuGly)-P2(Hyp(O—CO(N,N-dibutyl)))-P1(1R,2S VinylAcca)—CONHSO2Cyclopropane]	100 to 1000 nM	1000 to 10000 nM	–	–
C=CC1C[C@]1(NC(=O)[C@@H]1C[C@@H](OC(=O)Nc2ccccc2N2CCOCC2)CN1C(=O)[C@@H](NC(=O)OC(C)(C)C)C(C)(C)C)C(=O)NS(=O)(=O)C1CC1 (stereo partly drawn) [Compound 82, BocNH-P3(t-BuGly)-P2(Hyp(O—CO(NH-2-(morpholin-4-yl-phenyl))))-P1(1R,2S VinylAcca)—CONHSO2Cyclopropane]	< 100 nM	100 to 1000 nM	–	–
C=CC1C[C@]1(NC(=O)[C@@H]1C[C@@H](OC(=O)Nc2ccccc2C)CN1C(=O)[C@@H](NC(=O)OC(C)(C)C)C(C)(C)C)C(=O)NS(=O)(=O)C1CC1 (some centres unmarked) [Compound 57]	100 to 1000 nM	1000 to 10000 nM	–	–
C=CC1C[C@]1(NC(=O)[C@@H]1C[C@@H](OC(=O)NCc2cccc(F)c2)CN1C(=O)[C@@H](NC(=O)OC(C)(C)C)C(C)(C)C)C(=O)NS(=O)(=O)C1CC1 (stereo partly drawn) [Compound 24, BocNH-P3(t-BuGly)-P2(Hyp(O—CO(NH—(3-fluoro-benzyl))))-P1(1R,2S VinylAcca)—CONHSO2Cyclopropane]	100 to 1000 nM	> 10000 nM	–	–
C=CC1C[C@]1(NC(=O)[C@@H]1C[C@@H](OC(=O)Nc2ccccc2C(=O)OCC)CN1C(=O)[C@@H](NC(=O)OC(C)(C)C)C(C)(C)C)C(=O)NS(=O)(=O)C1CC1 (stereo partly drawn) [Compound 19, BocNH-P3(t-BuGly)-P2(Hyp(O—CO(NH—(2-benzoic acid ethyl ester))))-P1(1R,2S VinylAcca)—CONHSO2Cyclopropane]	< 100 nM	< 100 nM	–	–
C=CC1C[C@]1(NC(=O)[C@@H]1C[C@@H](OC(=O)Nc2ccccc2C(=O)c2ccccc2)CN1C(=O)[C@@H](NC(=O)OC(C)(C)C)C(C)(C)C)C(=O)NS(=O)(=O)C1CC1 (stereo partly drawn) [Compound 74, BocNH-P3(t-BuGly)-P2(Hyp(O—CO(NH—(2-benzophenone))))-P1(1R,2S VinylAcca)—CONHSO2Cyclopropane]	< 100 nM	100 to 1000 nM	–	–
C=CCN(CC=C)C(=O)O[C@@H]1C[C@@H](C(=O)N[C@]2(C(=O)NS(=O)(=O)C3CC3)CC2C=C)N(C(=O)[C@@H](NC(=O)OC(C)(C)C)C(C)(C)C)C1 (stereo partly drawn) [Compound 5, BocNH-P3(t-BuGly)-P2(Hyp(O—CO(N,N-diallyl)))-P1(1R,2S VinylAcca)—CONHSO2Cyclopropane]	100 to 1000 nM	1000 to 10000 nM	–	–
C=CC1C[C@]1(NC(=O)[C@@H]1C[C@@H](OC(=O)Nc2cccc(C(=O)OCC)c2)CN1C(=O)[C@@H](NC(=O)OC(C)(C)C)C(C)(C)C)C(=O)NS(=O)(=O)C1CC1 (stereo partly drawn) [Compound 28, BocNH-P3(t-BuGly)-P2(Hyp(O—CO(NH—(3-benzoic acid ethyl ester))))-P1(1R,2S VinylAcca)—CONHSO2Cyclopropane]	100 to 1000 nM	1000 to 10000 nM	–	–
C=CC1C[C@]1(NC(=O)[C@@H]1C[C@@H](OC(=O)Nc2cc(C)ccc2-n2cccc2)CN1C(=O)[C@@H](NC(=O)OC(C)(C)C)C(C)(C)C)C(=O)NS(=O)(=O)C1CC1 (stereo partly drawn) [Compound 83, BocNH-P3(t-BuGly)-P2(Hyp(O—CO(NH—(5-Methyl-2-pyrrol-1-yl-phenyl))))-P1(1R,2S VinylAcca)—CONHSO2Cyclopropane]	< 100 nM	< 100 nM	–	–
C=CC1C[C@]1(NC(=O)[C@@H]1C[C@@H](OC(=O)Nc2ccc3c(c2)OCO3)CN1C(=O)[C@@H](NC(=O)OC(C)(C)C)C(C)(C)C)C(=O)NS(=O)(=O)C1CC1 (stereo partly drawn) [Compound 10, BocNH-P3(t-BuGly)-P2(Hyp(O—CO(NH-Benzo[1,3]dioxol-5-yl)))-P1(1R,2S VinylAcca)—CONHSO2Cyclopropane]	100 to 1000 nM	> 10000 nM	–	–
C=CC1C[C@]1(NC(=O)[C@@H]1C[C@@H](OC(=O)Nc2ccccc2C(=O)OC)CN1C(=O)[C@@H](NC(=O)OC(C)(C)C)C(C)(C)C)C(=O)NS(=O)(=O)C1CC1 (stereo partly drawn) [Compound 30, BocNH-P3(t-BuGly)-P2(Hyp(O—CO(NH—(2-benzoic acid methyl ester))))-P1(1R,2S VinylAcca)—CONHSO2Cyclopropane]	< 100 nM	< 100 nM	–	–
C=CC1C[C@]1(NC(=O)[C@@H]1C[C@@H](OC(=O)Nc2ccccc2-n2cccn2)CN1C(=O)[C@@H](NC(=O)OC(C)(C)C)C(C)(C)C)C(=O)NS(=O)(=O)C1CC1 (stereo partly drawn) [Compound 89, BocNH-P3(t-BuGly)-P2(Hyp(O—CO(NH—(2-Pyrazol-1-yl-phenyl))))-P1(1R,2S VinylAcca)—CONHSO2Cyclopropane]	< 100 nM	100 to 1000 nM	–	–
C=CC1C[C@]1(NC(=O)[C@@H]1C[C@@H](OC(=O)Nc2ccccc2-n2nccn2)CN1C(=O)[C@@H](NC(=O)OC(C)(C)C)C(C)(C)C)C(=O)NS(=O)(=O)C1CC1 (stereo partly drawn) [Compound 93, BocNH-P3(t-BuGly)-P2(Hyp(O—CO(NH—(2-[1,2,3]Triazol-2-yl-phenyl))))-P1(1R,2S VinylAcca)—CONHSO2Cyclopropane]	< 100 nM	100 to 1000 nM	–	–
C=CC1C[C@]1(NC(=O)[C@@H]1C[C@@H](OC(=O)Nc2cccc(C(C)=O)c2)CN1C(=O)[C@@H](NC(=O)OC(C)(C)C)C(C)(C)C)C(=O)NS(=O)(=O)C1CC1 (stereo partly drawn) [Compound 47, BocNH-P3(t-BuGly)-P2(Hyp(O—CO(NH—(3-acetyl-phenyl))))-P1(1R,2S VinylAcca)—CONHSO2Cyclopropane]	100 to 1000 nM	> 10000 nM	–	–
C=CC1C[C@]1(NC(=O)[C@@H]1C[C@@H](OC(=O)Nc2ccccc2-n2cccc2)CN1C(=O)[C@@H](NC(=O)OC(C)(C)C)C(C)(C)C)C(=O)NS(=O)(=O)C1CC1 (stereo partly drawn) [Compound 86, BocNH-P3(t-BuGly)-P2(Hyp(O—CO(NH—(2-pyrrol-1-yl-phenyl))))-P1(1R,2S VinylAcca)—CONHSO2Cyclopropane]	< 100 nM	100 to 1000 nM	–	–
C=CC1C[C@]1(NC(=O)[C@@H]1C[C@@H](OC(=O)Nc2ccccc2/C(=N/O)c2ccccc2)CN1C(=O)[C@@H](NC(=O)OC(C)(C)C)C(C)(C)C)C(=O)NS(=O)(=O)C1CC1 (single isomer, unassigned) [Compound 77a]	100 to 1000 nM	–	–	1000 to 10000 nM
C=CC1C[C@]1(NC(=O)[C@@H]1C[C@@H](OC(=O)Nc2cccc(C(F)(F)F)c2)CN1C(=O)[C@@H](NC(=O)OC(C)(C)C)C(C)(C)C)C(=O)NS(=O)(=O)C1CC1 (stereo partly drawn) [Compound 34, BocNH-P3(t-BuGly)-P2(Hyp(O—CO(NH—(3-trifluoromethyl-phenyl))))-P1(1R,2S VinylAcca)—CONHSO2Cyclopropane]	100 to 1000 nM	1000 to 10000 nM	–	–
C=CC1C[C@]1(NC(=O)[C@@H]1C[C@@H](OC(=O)Nc2c(C)cccc2Cl)CN1C(=O)[C@@H](NC(=O)OC(C)(C)C)C(C)(C)C)C(=O)NS(=O)(=O)C1CC1 (stereo partly drawn) [Compound 63, BocNH-P3(t-BuGly)-P2(Hyp(O—CO(NH—(2-chloro-6-methyl))))-P1(1R,2S VinylAcca)—CONHSO2Cyclopropane]	100 to 1000 nM	1000 to 10000 nM	–	–
C=CC1C[C@]1(NC(=O)[C@@H]1C[C@@H](OC(=O)Nc2cc(C(F)(F)F)ccc2-n2cccc2)CN1C(=O)[C@@H](NC(=O)OC(C)(C)C)C(C)(C)C)C(=O)NS(=O)(=O)C1CC1 (some centres unmarked) [Compound 85]	< 100 nM	100 to 1000 nM	–	–
C=CC1C[C@]1(NC(=O)[C@@H]1C[C@@H](OC(=O)Nc2cc(Cl)nc(Cl)c2)CN1C(=O)[C@@H](NC(=O)OC(C)(C)C)C(C)(C)C)C(=O)NS(=O)(=O)C1CC1 (stereo partly drawn) [Compound 18, BocNH-P3(t-BuGly)-P2(Hyp(O—CO(NH—(2,6-Dichloro-pyridin-4-yl))))-P1(1R,2S VinylAcca)—CONHSO2Cyclopropane]	100 to 1000 nM	> 10000 nM	–	–
